Substitutions are numbered along the chain they refer to. In names and notes the source's numbering stands.
Columns and labels:
[1] = Abiotic escape of anisole from M9 minimal media overnight; assay type: physicochemical; details: 2 mM anisole in M9 minimal media, flasks
P. putida KT2440 = experiment: Toxicity analysis: growth of P. putida KT2440 at different phenol and anisole concentrations
Description: (§1) P. putida and E. coli cultures were incubated at 30° C. and 37° C. respectively. For cloning purposes, both strains were propagated in Lysogeny Broth (LB) medium containing 10 g/L NaCl, 10 g/L tryptone, and 5 g/L yeast extract. For the preparation of solid media, 1.5% (w/v) agar was added. […] All growth experiments were performed using M9 minimal medium (per Liter; 3.88 g K2HPO4, 1.63 g NaH2PO4, 2.0 g (NH4)2SO4, pH 7.0. The M9 media was supplemented with a trace elements solution (10 mg/L ethylenediaminetetraacetic acid (EDTA), 0.1 g/L MgCl2 6 H2O, 2 mg/L ZnSO4·7H2O, 1 mg/L CaCl2)·2H2O, 5 mg/L FeSO4·7 H2O, 0.2 mg/L Na2MoO4·2H2O, 0.2 mg/L CuSO4·5H2O, 0.4 mg/L CoCl2·6H2O, 1 mg/L MnCl2·2H2O). In these experiments, strains were precultured in 10 mL LB with corresponding antibiotics. Then, the cultures were washed twice in M9 media without a carbon source. Finally, the cultures were diluted to an OD600 of 0.1 to start the experiment. In all plate reader experiments, a glucose concentration of 10 mM was used. […] Plate reader experiments were carried out in 200 μL of M9 medium using an ELx808 plate reader (BioTek). Growth (OD600) was measured over time using continuous shaking and measurements were taken every three minutes. Flask experiments were performed in 250 mL Erlenmeyer flasks filled with 25 mL of M9 minimal medium containing 50 mM of glucose. […] The cultures were incubated in a rotary shaker at 200 rpm at 30° C.
The production of aromatic compounds often comes with unwanted toxicity. One way of circumventing this is the utilization of microbial hosts with high tolerance towards aromatic compounds (Li et al., 2020. Biotechnol Adv 41: 107548).
The presence of phenolic hydroxyl groups has been associated with the inhibition of microbial enzymes and the damage of the bacterial membrane (Miklasinska-Majdanik et al., 2018. Int J Environ Res Public Health 15: 2321).

[2] = Distribution of anisole and phenol between water and organic solvent after 1 h; assay type: physicochemical; details: 1 mM in water, equal volume of dodecane, ethyl acetate, isopropyl myristate or tributyrin
Description: A main bottleneck when producing anisole is its volatility. To overcome this problem an organic solvent can be used in biphasic fermentation to quantify volatile or insoluble products in water, allowing their recovery. To enable in situ anisole extraction, we tested four organic solvents: dodecane, ethyl acetate, isopropyl myristate, and tributyrin. […] Next, 0.9 ml of the stock solution was mixed with an equal volume of one of the selected solvents in an Eppendorf tube.
Therefore, dodecane was chosen as the solvent for anisole extraction.

[3] = Anisole capture at different dodecane ratios, 24 h flasks; assay type: physicochemical; details: 30° C., 250 rpm
Description: An additional experiment was performed to determine the optimal ratio of the two phases. Ratios of 0%, 5%, 15%, 30%, 50%, and 100% dodecane were tested in a total volume of 25 ml. […] Next, dodecane was added to the flasks according to the predetermined ratios. Flasks were incubated for 24 h at 30° C. and 250 rpm to simulate P. putida KT2440 growth. After incubation, samples were collected separately from each phase and concentrations were measured using HPLC. […] After 24 hours, samples containing the organic phase from 5% and 15% dodecane flasks captured on average 19.42% and 39.57% of the initial concentration of anisole, respectively. […] Flasks containing 30% dodecane, extracted approximately 75% of the anisole which was further increased to nearly 95% flasks with a 50% ratio.

phenol [4] = experiment: Growth-coupled methyltransferase selection in CM-Aux; assay type: cell-based, Pseudomonas putida
Excerpt: This design relies on the conversion of methionine into cysteine through the intermediate homocysteine with the aid of a SAM-dependent methyltransferase. Exogenously added methionine is converted into SAM, which would subsequently be converted into S-adenosyl-l-homocysteine (SAH) by CVOMT1 (FIG. 8C). Then, SAH is converted into homocysteine and subsequently into cysteine by reverse trans-sulfuration restoring growth in the process.
Next, an aim was set to install the reverse trans-sulfuration module which will convert homocysteine to the amino acid cysteine. This is a two-step process, catalyzed by the enzymes cystathionine-β-synthase and cystathionine-γ-lyase. The C-module was created by cloning the cystathionine-β-synthase (Cys) from S. cerevisiae and the cystathionine-γ-lyase (PA) from Pseudomonas aeruginosa on a pSEVAb62 backbone. The CM-Aux strain was equipped with the C-module and growth of the strain in minimal media was assessed. In all cases, growth could only occur upon the expression of the C-module. This module converts homocysteine to […], and if active, produces cysteine, restoring growth (FIG. 8A). […]
Next, an aim was set to examine the anisole production rate of POMT1 compared to CVOMT1. […] Samples were taken at time zero only from the medium and then after 24 hours from both phases and analyzed at the HPLC.

phenol [5] = experiment: Phenol consumption and anisole production, CVOMT1 vs POMT1 in P. putida KT2440 with 50% dodecane; assay type: cell-based, Pseudomonas putida; details: for anisole produced, maximum / phenol consumed: 50 mM glucose, 1 mM phenol, 1 mM methionine, 50% dodecane; for phenol consumed: 24 hours
Description: Cell growth was determined by measuring the optical density at 600 nm (OD600) using an OD600 DiluPhotometer spectrophotometer (IMPLEN) or a Synergy plate reader (BioTek Instruments). Analysis of glucose in supernatants was performed using high-performance liquid chromatography (HPLC) (Thermo Fisher Scientific) equipped with an Aminex HPX-87H column. The mobile phase was 5 mM of H2SO4 at a flow rate of 0.6 mL/min, the column temperatures were held at 60° C. and the compounds were detected using a Shodex RI-101 detector (Shodex). […] The mobile phase consisted of Milli-Q water (A), 100 mM formic acid (B) and acetonitrile (C) with a flow rate of 1 mL/min at 30° C. Chromatographic separation of analytes was attained using the following gradient program: t=0-5 min: A-55%, B-10% and C-35% from t=5-10 min ramp to A-10%, B-10% and C-80% and held until 15 min. Then from t=15-16 min, the gradient was returned to A-55%, B-10% and C-35% and maintained isocratic for a total run time of 18 min. For quantification, calibration curves were prepared using pure standards (purity) purchased from Sigma-Aldrich.
Next, an aim was set to examine the anisole production rate of POMT1 compared to CVOMT1. […] An initial sample was taken and hereafter 50% dodecane was added. Cells were then incubated overnight at 30° C. and 250 rpm. Samples were taken at time zero only from the medium and then after 24 hours from both phases and analyzed at the HPLC.

phenol [6] = experiment: Phenol consumption and anisole production by P. putida KT2440 expressing CVOMT1; assay type: cell-based, Pseudomonas putida; details: 50 mM glucose, 1 mM phenol
Description: as §1

For `COc1ccccc1` [anisole], the “anisole disappeared from media” value [1] was 89%, the effect on growth (P. putida KT2440) was “did not show any detrimental effects on growth” and the “capture of anisole by organic solvents” value [2] was “successfully captured”. For the same molecule, the “anisole in water phase” value ([3]; 0% dodecane) was “almost undetectable”, the “anisole captured in organic phase, of initial concentration” value ([3]; 5% dodecane) was 19.42% and the “anisole captured in organic phase, of initial concentration” value ([3]; 15% dodecane) was 39.57%. The anisole extracted ([3]; 30% dodecane) was “approximately 75%” and the anisole extracted ([3]; 50% dodecane) was ~95%.

For `Oc1ccccc1` [phenol], the “concentration up to which growth rates did not deviate” value (P. putida KT2440; growth of P. putida KT2440) was “up to 2 mM”, the “concentration with detrimental effect on growth rate and final cell density” value (P. putida KT2440; growth of P. putida KT2440) was ≥ 3 mM and the “phenol concentration the strain was able to withstand” value (P. putida KT2440; growth of P. putida KT2440) was “up to 5 mM”.

B1: CVOMT1: chavicol O-methyltransferase (EC 2.1.1.146) from Ocimum basilicum, SEQ ID NO:1 (protein, listed as Ocimum basilicum)
chain: MALQNMDISLSTEQLLQAQAHVWNHMYAFANSMSLKCAIQLGIPDILHKHDHPMTLSQLLKAIPINKEKSQSFQRLMRALVNSNFFIEENSNNQEVCYWLTPASRLLLKGAPLTVAPLVQVVLDPTFTNPWHYMSEWFKHENHATQFEAANGCTFWEKLANKPSMGRFFDEAMSCDSRLVAHVLTKDYKHVIDGIRTLVDVGGGNGTMAKAIVEAVPTMKCTVLDLPHVVAGLESTDKLSYIGGDMFQSIPSADAILLKFIIHDWDDEEGLKILKRCKDAVGIGGKVIIIDVVVGVNHDVDEVLEDQLHFDMAMMSYFNAKERTMNEWEKLISAAGFTSYKLTPAFGVRSLIEAYP
With B1 the doubling time (phenol [4]; CM-Aux with C- and A-module, phenol and methionine added (1 mM)) was 1.8 h, the “anisole produced, maximum” value (phenol [5]) was 0.06 mM and the phenol consumed (phenol [5]) was 0.23 mM. The “anisole yield of the converted phenol” value (phenol [6]; 1 mM methionine added) was 15.5 % mol/mol, the anisole detection (phenol [6]; no methionine) was “no anisole was detected” and the phenol consumed (phenol [6]; no methionine, 24 hours) was 0.12 mM.

B2: POMT1: evolved phenol O-methyltransferase, SEQ ID NO:1 with D264N alteration (SEQ ID NO:3) (protein)
chain: B1 chain with D264N
In the case of B2, the “phenol concentration at which maximum growth rate is reached” value (phenol [4]; CM-Aux, 1 mM methionine, different phenol concentrations) is reported as 0.2 mM, the “increase in anisole concentration compared to wild-type enzyme” value (phenol [5]) is reported as 2.33 fold and the “anisole produced, maximum” value (phenol [5]) is reported as 0.14 mM. The phenol consumed (phenol [5]) was 0.38 mM and the “phenol consumption more than CVOMT1” value (phenol [5]; within 24 hours) was 65%.
